Reference: US11377442B2, “Small molecule agonists and antagonists of NR2F6 activity” (ZANDER THERAPEUTICS, INC., priority 2016, dated 2022)
Where two headings read alike, the source gives them in different places.

What was measured:
Assay type in all cases: cell-based
Renilla = Renilla signal in NR2F6 agonist screening, cmpd/DMSO; settings: for fold induction at 2 µM / fold induction at 10 µM / fold induction at 40 µM: Renilla, read-out: Renilla F4, cmpd/DMSO (mean)
NR2F6 = target: T1, NR2F6 (Homo sapiens, UniProt P10588); assay: NR2F6 agonist screening, Firefly signal cmpd/DMSO
T1 construct: expressed in transfected cells; also transient transfection
T1 sequence (P10588 1-404): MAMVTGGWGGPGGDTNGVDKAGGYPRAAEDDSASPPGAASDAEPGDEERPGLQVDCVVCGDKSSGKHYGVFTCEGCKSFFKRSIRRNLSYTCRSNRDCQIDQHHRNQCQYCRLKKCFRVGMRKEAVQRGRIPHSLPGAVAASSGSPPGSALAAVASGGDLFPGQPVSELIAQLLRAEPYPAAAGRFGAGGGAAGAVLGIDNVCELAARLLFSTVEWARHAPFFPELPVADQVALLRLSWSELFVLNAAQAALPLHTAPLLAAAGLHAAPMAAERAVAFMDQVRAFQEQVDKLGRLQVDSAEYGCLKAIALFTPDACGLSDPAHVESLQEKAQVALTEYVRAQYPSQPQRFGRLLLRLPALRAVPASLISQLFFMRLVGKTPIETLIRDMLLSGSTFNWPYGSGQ

Renilla_ERa = assay: Renilla signal in ERα counterscreen (Renilla_ERa); settings: for fold induction at 2 µM / fold induction at 10 µM / fold induction at 40 µM: read-out: Renilla ERalpha transient, cmpd/DMSO (mean)
ERα [1] = target: T2, ERα (Homo sapiens, UniProt P03372); assay: Counterscreening, Firefly signal with ERα transient transfection (Firefly_ERa); settings: 10 uM
T2 construct: expressed in transfected cells
T2 sequence (P03372 1-595): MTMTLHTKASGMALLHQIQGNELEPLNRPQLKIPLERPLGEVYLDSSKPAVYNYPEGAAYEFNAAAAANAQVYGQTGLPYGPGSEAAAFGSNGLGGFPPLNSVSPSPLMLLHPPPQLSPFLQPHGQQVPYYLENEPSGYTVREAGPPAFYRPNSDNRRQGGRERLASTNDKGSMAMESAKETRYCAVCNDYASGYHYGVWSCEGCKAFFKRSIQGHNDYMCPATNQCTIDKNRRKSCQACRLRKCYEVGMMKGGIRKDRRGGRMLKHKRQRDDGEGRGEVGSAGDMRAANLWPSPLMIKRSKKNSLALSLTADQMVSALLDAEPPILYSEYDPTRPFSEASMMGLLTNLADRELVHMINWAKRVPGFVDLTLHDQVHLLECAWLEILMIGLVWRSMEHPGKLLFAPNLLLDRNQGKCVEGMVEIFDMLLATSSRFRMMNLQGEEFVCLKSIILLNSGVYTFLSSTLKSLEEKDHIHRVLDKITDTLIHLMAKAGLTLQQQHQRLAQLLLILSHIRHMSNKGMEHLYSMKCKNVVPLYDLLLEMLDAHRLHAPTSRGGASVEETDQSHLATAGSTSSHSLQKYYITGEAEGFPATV
Protocol: The methodology for screening candidate compounds as NR2F6 agonists was as follows: For primary screening, hit criteria was ACT %>DMSO control+5*SD (DSO control) at 10 μM, or any compound with S/B>2. For rescreening, hit criteria was ACT %>DMSO control+3*SD (DSO control) in each replicate at 10 μM. For counterscreening, hit criteria was mean ACT<DMSO control+3*SD (DMSO control) with ERα transient transfection in duplicate at 10 μM.

ERα [2] = target: T2, ERα; assay: as above

Firefly F4, cmpd/DMSO (mean) (NR2F6; 2 uM, clone F4)	Firefly F4, cmpd/DMSO (mean) (NR2F6; 10 uM, clone F4)	Firefly F4, cmpd/DMSO (mean) (NR2F6; 40 uM, clone F4)	Firefly ERalpha transient, cmpd/DMSO (mean) (ERα [1])	Firefly ERalpha transient, cmpd/DMSO (mean) (ERα [2]; 2 uM)	Firefly ERalpha transient, cmpd/DMSO (mean) (ERα [2]; 40 uM)	SMILES	Renilla F4, cmpd/DMSO (mean) (Renilla; 2 uM, clone F4)	Renilla F4, cmpd/DMSO (mean) (Renilla; 10 uM, clone F4)	Renilla F4, cmpd/DMSO (mean) (Renilla; 40 uM, clone F4)	Renilla ERalpha transient, cmpd/DMSO (mean) (Renilla_ERa; 2 uM)	Renilla ERalpha transient, cmpd/DMSO (mean) (Renilla_ERa; 10 uM)	Renilla ERalpha transient, cmpd/DMSO (mean) (Renilla_ERa; 40 uM)	fold induction at 2 µM (Renilla; 2 uM, clone F4)	fold induction at 10 µM (Renilla; 10 uM, clone F4)	fold induction at 40 µM (Renilla; 40 uM, clone F4)	fold induction at 2 µM (Renilla_ERa; 2 uM)	fold induction at 10 µM (Renilla_ERa; 10 uM)	fold induction at 40 µM (Renilla_ERa; 40 uM)	other results
1.1	1.0	0.8	0.9	1.0	1.3	CC(C)Nc1nc(N2CCCC2)nc(N2CCn3c(cccc3=O)C2)n1 [Compound 35]	1.1	0.9	0.9	1.0	1.0	1.1	–	–	–	–	–	–	–
1.3	0.6	0.9	0.8	1.1	0.4	CC1CCN(c2nc(N3CCC(C)CC3)nc(N3CCn4c(cccc4=O)C3)n2)CC1 [Compound 36]	1.2	0.8	0.5	1.2	1.1	0.3	–	–	–	–	–	–	–
1.1	0.9	0.9	0.6	0.9	0.9	O=c1cccc2n1CC1CC2CN(c2nc(NCCC3=CCCCC3)nc(N3CCOCC3)n2)C1 (stereo not drawn) [Compound 39]	–	–	–	–	–	–	1.2	1.4	1	1.1	1.2	1.2	–
0.9	1.0	0.8	1.0	1.0	0.7	CCCCCCNc1nc(OCC)nc(N2CCn3c(cccc3=O)C2)n1 [Compound 40]	1.1	1.3	1.0	1.2	1.2	1.1	–	–	–	–	–	–	–
0.8	0.9	0.9	1.5	1.5	1.4	CCCCCCNc1nc(OC)nc(N2CCn3c(cccc3=O)C2)n1 [Compound 41]	1.1	1.1	1.1	1.2	1.2	1.1	–	–	–	–	–	–	–
1.6	0.8	0.9	1.0	2.3	1.0	O=c1cccc2n1CCN(c1nc(NCC3CCCO3)nc(N3CCCC3)n1)C2 (stereo not drawn) [Compound 42]	0.7	0.8	1.1	0.9	1.0	1.0	–	–	–	–	–	–	–
1.0	0.9	0.8	1.4	1.4	1.2	CC1CCN(c2nc(NCCN3CCOCC3)nc(N3CC4CC(C3)c3cccc(=O)n3C4)n2)CC1 (stereo not drawn) [Compound 43]	–	–	–	–	–	–	1	1.1	1.1	1.1	1	1	–
1.3	1.5	0.7	1.3	1.5	0.5	O=C(O)c1ccc(-n2ncc(Cl)c(Cl)c2=O)cc1 [Compound 44]	–	–	–	–	–	–	1.1	1.1	0.3	1.3	1.2	0.3	–
–	–	–	–	–	–	Cc1ccc(NC(=O)c2noc3c2CC(C)(C)CC3)cc1C [Compound Z1]	–	–	–	–	–	–	–	–	–	–	–	–	fold induction at 2 µM (Renilla; Table 15, 2 uM): 1.3; fold induction at 10 µM (Renilla; Table 15, 10 uM): 1.6; fold induction at 40 µM (Renilla; Table 15, 40 uM): 0.8; Firefly F4, cmpd/DMSO (mean) (NR2F6; Table 15, 2 uM): 1.9; Firefly F4, cmpd/DMSO (mean) (NR2F6; Table 15, 10 uM): 1.8; Firefly F4, cmpd/DMSO (mean) (NR2F6; Table 15, 40 uM): 0.8; fold induction at 2 µM (Renilla_ERa; Table 15, 2 uM): 1.1; fold induction at 10 µM (Renilla_ERa; Table 15, 10 uM): 1; fold induction at 40 µM (Renilla_ERa; Table 15, 40 uM): 0.7; Firefly ERalpha transient, cmpd/DMSO (mean) (ERα [1]; Table 15): 2.2; Firefly ERalpha transient, cmpd/DMSO (mean) (ERα [2]; Table 15, 2 uM): 2.4; Firefly ERalpha transient, cmpd/DMSO (mean) (ERα [2]; Table 15, 40 uM): 0.9
–	–	–	–	–	–	Cc1ccc(NC(=O)c2n[nH]c3c2CCCCC3)cc1C [Compound Z2]	–	–	–	–	–	–	–	–	–	–	–	–	fold induction at 2 µM (Renilla; Table 15, 2 uM): 1.2; fold induction at 10 µM (Renilla; Table 15, 10 uM): 1.8; fold induction at 40 µM (Renilla; Table 15, 40 uM): 1.2; Firefly F4, cmpd/DMSO (mean) (NR2F6; Table 15, 2 uM): 1.4; Firefly F4, cmpd/DMSO (mean) (NR2F6; Table 15, 10 uM): 1.9; Firefly F4, cmpd/DMSO (mean) (NR2F6; Table 15, 40 uM): 0.6; fold induction at 2 µM (Renilla_ERa; Table 15, 2 uM): 1.2; fold induction at 10 µM (Renilla_ERa; Table 15, 10 uM): 1.1; fold induction at 40 µM (Renilla_ERa; Table 15, 40 uM): 1; Firefly ERalpha transient, cmpd/DMSO (mean) (ERα [1]; Table 15): 1.1; Firefly ERalpha transient, cmpd/DMSO (mean) (ERα [2]; Table 15, 2 uM): 1.6; Firefly ERalpha transient, cmpd/DMSO (mean) (ERα [2]; Table 15, 40 uM): 0.7

SMILES	Firefly F4, cmpd/DMSO (mean) (NR2F6; 2 uM, clone F4)	Firefly F4, cmpd/DMSO (mean) (NR2F6; 10 uM, clone F4)	Firefly F4, cmpd/DMSO (mean) (NR2F6; 40 uM, clone F4)	Firefly ERalpha transient, cmpd/DMSO (mean) (ERα [1])	Firefly ERalpha transient, cmpd/DMSO (mean) (ERα [2]; 2 uM)	Firefly ERalpha transient, cmpd/DMSO (mean) (ERα [2]; 40 uM)	Renilla F4, cmpd/DMSO (mean) (Renilla; 2 uM, clone F4)	Renilla F4, cmpd/DMSO (mean) (Renilla; 10 uM, clone F4)	Renilla F4, cmpd/DMSO (mean) (Renilla; 40 uM, clone F4)	Renilla ERalpha transient, cmpd/DMSO (mean) (Renilla_ERa; 2 uM)	Renilla ERalpha transient, cmpd/DMSO (mean) (Renilla_ERa; 10 uM)	Renilla ERalpha transient, cmpd/DMSO (mean) (Renilla_ERa; 40 uM)	fold induction at 2 µM (Renilla; 2 uM, clone F4)	fold induction at 10 µM (Renilla; 10 uM, clone F4)	fold induction at 40 µM (Renilla; 40 uM, clone F4)	fold induction at 2 µM (Renilla_ERa; 2 uM)	fold induction at 10 µM (Renilla_ERa; 10 uM)	fold induction at 40 µM (Renilla_ERa; 40 uM)	other results
CCCNc1nc(N2CCOCC2)nc(N2CC3CC(C2)c2cccc(=O)n2C3)n1 (stereo not drawn) [Compound 37]	1.3	1.1	1.3	1.4	1.1	1.2	–	–	–	–	–	–	0.9	1.2	1.3	1.1	1.1	1.1	–
COc1nc(NCCC2=CCCCC2)nc(N2CC3CC(C2)c2cccc(=O)n2C3)n1 (stereo not drawn) [Compound 38]	1.2	0.8	0.7	0.9	0.8	0.5	–	–	–	–	–	–	1.1	1.1	1.3	1.2	1.1	1.1	–
O=c1c(Cl)c(Cl)cnn1-c1ccccc1 [Compound 45]	3.2	1.2	0.7	1.6	1.8	0.6	–	–	–	–	–	–	1.6	0.8	0.2	1.6	0.8	0.2	–
